The results in this text go back to US20220162215A1, “COMPOSITIONS AND METHODS OF USING THE SAME FOR TREATMENT OF NEURODEGENERATIVE AND MITOCHONDRIAL DISEASE” (MITOKININ, INC., priority 2019, published 2022).

The subject of one experiment is PINK1/parkin pathway. Kind of experiment: Parkin recruitment to mitochondria, live cell imaging. The experiment is classed as cell-based, human. The settings on record: PINK1wt vs PINK1ko cells, FIG. 18. How it is done:
When the PINK1/parkin pathway is activated by FCCP, PINK1 is stabilized on the mitochondrial membrane, and its activity leads to the recruitment of parkin to the mitochondria (Narendra et al., PLoS Biol 2010; Narendra et al., J. Cell Biol 2008; Vives-Bauza et al., PNAS 2009). The aim of this assay is to test how MTK compounds affect the speed of parkin recruitment to the mitochondria. Briefly, HeLa-MKYP cells were plated at 7,000 cells/well in 96-well plates along with compounds at various concentrations. Following 16 hours of incubation, cells were treated in phenol-free media with 1 μM FCCP/oligomycin (F/O) along with compounds at various doses for 2-3 hours. Immediately following addition of new media, the cell treatment plate was transferred to a CO2 and temperature-regulated chamber in a high-content imaging microscope [Molecular Devices], to acquire images from live cells at regular intervals during the treatment timecourse. Appropriate controls were included on each plate to obtain a maximum signal from treatment with 2 μM F/O, or a minimum signal from cells treated with no F/O with DMSO for each cell type tested (HeLa-MKYP WT or PINK1^KO). Images were analyzed using MetaExpress 6 software package, and automatically processed after setting thresholds to define overlap between the YFP-parkin signal and red mitochondrial signal based on controls. […]

A further experiment relates to α-synuclein. Kind of experiment: Preformed α-syn amyloid fibril (PFF) mouse model. Format: in vivo. The settings on record: oral dosing; for all analyzed species of α-synuclein: 50 mg/kg max. The procedure: Animals. C57BL6 mice were obtained from the Jackson Laboratories.
Injection material and stereotaxic injections. Purification of recombinant α-synuclein proteins and in vitro fibril assembly was performed as previously described (K. C. Luk et al., Intracerebral inoculation of pathological α-synuclein initiates a rapidly progressive neurodegenerative α-synucleinopathy in mice. J. Exp. Med. 209, 975 (2012)) from full-length wildtype mouse α-synuclein (5 mg/mL). Assembly reactions were agitated in an Eppendorf orbital mixer (1,000 rpm at 37° C.) and α-synuclein pre-formed fibrils (PFFs) harvested after 5 d. Preparations were diluted in sterile PBS and sonicated briefly with a hand-held probe sonicator (Fisher Scientific Model 120) prior to injection. Mice between 2 and 3 months of age were anesthetized with ketamine hydrochloride (100 mg/kg, i.p.) and xylazine (10 mg/kg, i.p.) and stereotaxically injected in one hemisphere of the striatum with PFFs (5 μg). Control animals received sterile PBS. To target the striatum, a single needle insertion (co-ordinates: +1.0 mm relative to Bregma, +2.0 mm from midline) into the right forebrain was used (+2.6 mm beneath the dura). Injections were performed using a motorized injector at a rate of 0.2 μL per min (2.5 μL total per site) with the needle in place for >5 min at each target. Animals were monitored regularly following recovery from surgery. Starting 7 days after surgery, a daily oral dose of EP-0035985 or vehicle control was administered, continuing for the duration of the study. The animals were sacrificed at 30 days post injection by overdose with isofluorane, and their brains removed following transcardial perfusion with PBS. Brains were sectioned into striatum and ventral midbrain sections, and immediately frozen and stored at −80° C. until used.
Biochemical analysis. Dissected brain regions of interest were extracted as in Yun, P. S., et al Nat Med. 2018 July; 24(7):931-938. Briefly, sections were homogenized in brain lysis buffer containing 10 mM Tris-HCl, pH 7.4, 150 mM NaCl, 5 mM EDTA, 0.5% IGEPAL® CA-630 (Nonidet P-40), 1× Halt™ Protease and Phosphatase Inhibitor Cocktail. 0.2 mL of buffer was used per tissue section. Samples were homogenized using a mortar pestle and then 0.3 mL brain lysis buffer was added before clearing at 300×g for 3 minutes at 4° C. Supernatant was then transferred to a new tube and cleared at 22,000×g for 20 min at 4° C. The supernatant should be transferred and the pellet washed with 0.3 mL brain lysis buffer before repeating the clearing step. Subsequent to this the pellet should be further homogenized (sonicating for 20 s at 20% amplitude on ice) in 0.2 mL per sample SDS-Brain lysis buffer containing 10 mM Tris-HCl, pH 7.4, 150 mM NaCl, 5 mM EDTA, 0.5% Nonidet P-40, 1% SDS, 0.5% sodium deoxycholate. Protein concentrations were determined using the BCA assay (Pierce) and samples (10 μg total protein) were separated on SDS-polyacrylamide gels (4-20% gradient) and transferred onto nitrocellulose membranes. Blots were blocked in 5% BSA in TBST and probed using various primary antibodies. Target antigens were detected using an Odyssey FC scanner (LiCor) following incubation with the appropriate infrared secondary antibodies.

Take `FC(F)(F)c1cc2c(NC3CCCc4ccccc43)ncnc2[nH]1` (stereo not shown) [Compound 15]: the “rate of Parkin recruitment” value with PINK1/parkin pathway is “increases the rate of Parkin recruitment in PINK1^wt but not PINK1^ko cells”. Also, the “all analyzed species of α-synuclein” value in the experiment on α-synuclein (contralateral striatum, FIG. 30) is listed as “drives a decrease in all analyzed species of α-synuclein at 50 mg/kg max”; in the experiment on α-synuclein (ipsilateral striatum, FIG. 29) it was “drives a decrease in all analyzed species of α-synuclein at 50 mg/kg max”; with α-synuclein (ventral midbrain, FIG. 31), “drives a decrease in all analyzed species of α-synuclein at 50 mg/kg max”. Besides, in the experiment with α-synuclein (ipsilateral striatum, FIG. 26), the “c-terminal truncation of α-synuclein (14 kDA)” value is reported as “drives a decrease in c-terminal truncation of α-synuclein (14 kDA)”. In addition, in the experiment on α-synuclein (ipsilateral striatum, FIG. 27), the “pS129 monomer of α-synuclein” value is listed as “drives a decrease in pS129 monomer of α-synuclein”. Also, the “total monomer of α-synuclein” value in the experiment with α-synuclein (ipsilateral striatum, FIG. 28) is “drives a decrease in total monomer of α-synuclein”.
